Laboratory results taken from US8435957B2, “Use of lignan compound for anti-wrinkle treatment” (Biocare Co., Ltd., priority 2007, dated 2013).

What was measured:
[1] = system: matrix metalloproteinase-1 (MMP-1); assay: Western blot of matrix metalloproteinase-1 (MMP-1) expression in fibroblasts radiated with UV light; format: cell-based, human; conditions: for inhibition of expression of matrix metalloproteinase-1: UV 20 J/cm^2, given as 'higher than the negative control'; for expression of matrix metalloproteinase-1, result in words: 3, 5 and 10 μM, versus UV 20 J/cm^2 positive control, FIG. 3, FIG. 4; for inhibition at 3 µM / inhibition at 5 µM / inhibition at 10 µM: Homo sapiens, Fibroblast, light or radiation study, compared with UV 20 J/cm^2 treated positive control group, read-out: matrix metalloproteinase-1 (MMP-1) inhibitory activity effect
Experimental: Fibroblasts were cultured in a 60-mm dish at a concentration of 2×10^5 cells/ml to a confluence of about 85%. Before UV radiation, the medium was removed, and the cells were washed with PBS to remove a serum component therefrom, and then radiated with UV light at a dose of 20 J/cm^2. After the fibroblast cells were radiated with UV light, the cells were treated with each of the samples and cultured with serum free DMEM for 48 hours.
In order to measure the expression levels of matrix metalloproteinase-1 (MMP-1), Western blot was used, and the amount of total protein in the medium containing the fibroblasts cultured therein was quantified using the Bradford method.
The extracted protein was electrophoresed on 10% SDS-polyacrylamide gel, and then transferred to a nitrocellulose membrane. The membrane was blocked with 5% skim milk at room temperature for 1 hour in order to prevent it from being contaminated with other unknown proteins. Primary antibody to matrix metalloproteinase-1 was diluted in a blocking solution at a ratio of 1:1000 and allowed to react with the membrane at room temperature for 2 hours. After the primary antibody reaction, the membrane was washed three times with Tris-buffer saline Tween 20 (TBST) with shaking for 10 minutes each time. Secondary antibodies recognizing the primary antibodies to matrix metalloproteinase-1 was diluted in 5% skim milk at a ratio of 1:1000 and allowed to react with the membrane at room temperature for 1 hour. Then, the membrane was washed three times with tris-buffer saline Tween 20 with shaking for 10 minutes each time in the same manner as in the case of the primary antibody reaction, and then was developed by chemiluminescence.

human normal fibroblasts = assay: MTT assay, cell proliferation effect in fibroblasts; format: cell-based; conditions: 48 h serum-free culture, untreated medium as control
Experimental: In order to examine a cell proliferation effect proving the effect of reducing skin wrinkles, an MTT assay (3-(4,5-dimethylthiazol-2-yl)-2,5-diphenyl tetrazolium bromide reduction method) was carried out using fibroblasts.
First, human normal fibroblasts were plated into a 96-well plate at a concentration of 2×10^5 cells/well and primarily cultured in 10% FBS (fetal bovine serum)-containing DMEM medium in conditions of 37° C. and 5% CO2 for 24 hours. After the primary culture, the cells were treated with varying concentrations of the inventive sample. Then, the medium was replaced with a serum-free medium, and the cells were secondarily cultured for 48 hours. After the secondary culture step, 100 μl of MTT solution was added to the medium. Then, the resulting solution was left to stand for 4 hours, and then the medium was removed. 100 μl of dimethyl sulfoxide solution was added to each well and stirred for 20 minutes, and then the absorbance of each well at 540 nm was measured with a microplate reader.
According to the method of Example 2, the cell proliferation effects of 75% methanol extract of the aril of nutmeg and fragrin A and austobailignan 7 which are isolated and purified thereof were measured. In the MTT assay, a culture medium not treated with the sample was used as a control group and measured for absorbance, and the analysis results are shown in Table 3 below.

[2] = system: hairless mouse (Skh; HR-1); assay: In vivo anti-wrinkle effect, oral administration, skin replica; conditions: oral: 200 mg/kg nutmeg or 20 mg/kg macelignan; versus UV positive group; FIG. 8
Experimental: 6-week hairless mouse (Skh; HR-1) have a quarantine period for 1 week before experiment, and cared maintaining temperature with 23±3° C., relative humidity with 50±5° C., and 12 hours of day/night cycle (07:00-19:00/day time). They were fed with feed for mouse, and tap water. UV irradiations were performed 3 times per week in the same time, the amount of the UV irradiations were 50 mJ/cm^2 on 1st week, 100 mJ/cm^2 on 2nd week, 200 mJ/cm^2 on 3rd week, and 250 mJ/cm^2 on 4th and after 4th weeks. The groups were divided into 4 groups. Those were control, UV control, UV/nutmeg and UV/macelignan. 200 mg/kg of nutmeg and 20 mg/kg of macelignan were administered respectively by oral. For the experiment, nutmeg extract and macelignan were disolved in 0.25% CMC (carboxyl methyl celluose) solution.
In FIG. 8, A is the normal group, B is the UV irradiated group, C is the nutmeg administering group, and D is the macelignan administering group.

[3] = system: hairless mouse (Skh; HR-1); assay: In vivo anti-wrinkle effect, skin application, skin replica; conditions: applied to skin: 50 μl of 6% (w/v) nutmeg extract or 20 mM macelignan; versus UV positive group; FIG. 7
Experimental: 6-week hairless mouse (Skh; HR-1) have a quarantine period for 1 week before experiment, and cared maintaining temperature with 23±3° C., relative humidity with 50±5° C., and 12 hours of day/night cycle (07:00-19:00/day time). They were fed with feed for mouse, and tap water. UV irradiations were performed 3 times per week in the same time, the amount of the UV irradiations were 50 mJ/cm^2 on 1st week, 100 mJ/cm^2 on 2nd week, 200 mJ/cm^2 on 3rd week, and 250 mJ/cm^2 on 4th and after 4th weeks. The groups were divided into 4 groups. Those were control, UV control, UV/nutmeg and UV/macelignan.
50 μl of 6% (w/v) of nutmeg extract and 20 mM macelignan solution were applied for the experiment. For the experiment, nutmeg extract and macelignan were disolved in ethanol:polyethylene glycol (7:3, v/v).
In FIG. 7, A is the normal group, B is the UV irradiated group, C is the nutmeg applying group, and D is the macelignan applying group.

Structure (SMILES) | inhibition of expression of matrix metalloproteinase-1 ([1]; 10 μM) [%] | expression of matrix metalloproteinase-1, result in words [1] | Proliferation effect (%) (human normal fibroblasts; 3 μg/ml) | Proliferation effect (%) (human normal fibroblasts; 5 μg/ml) | Proliferation effect (%) (human normal fibroblasts; 10 μg/ml) | inhibition at 3 µM [1] [%] | inhibition at 5 µM [1] [%] | inhibition at 10 µM ([1]; 10 μM) [%] | effect on inhibiting wrinkle (skin replica), result in words [2] | effect on reducing wrinkle (skin replica), result in words [3] | inhibition of expression of matrix metalloproteinase-1 ([1]; 10 μg/ml) [%]
COc1cc([C@@H]2OC(c3ccc4c(c3)OCO4)[C@@H](C)[C@@H]2C)ccc1O (some centres unmarked) [austobailignan 7, austrobailignan-7] | 65 | inhibited the expression of matrix metalloproteinase-1 with dose-dependent manners | 104 | 105 | 110 |  |  |  |  |  | 
C=CCc1cc(OC)c(OC(C)Cc2ccc(O)c(OC)c2)c(OC)c1 (centres unmarked) [fragrin A, 2-(4-allyl-2,6-dimethoxyphenoxy)-1-(4-hydroxy-3-methoxyphenyl)-propane] | 65 | inhibited the expression of matrix metalloproteinase-1 with dose-dependent manners | 101 | 104 | 108 |  |  |  |  |  | 
C/C=C/c1cc(OC)c2c(c1)[C@@H](C)C(c1ccc3c(c1)OCO3)O2 (some centres unmarked) [licarin E] |  |  |  |  |  | 35 | 47 | 73 |  |  | 
COc1cc(C[C@H](C)[C@H](C)Cc2ccc3c(c2)OCO3)ccc1O [macelignan] |  |  |  |  |  | 31 | 42 | 63 | inhibited wrinkle | inhibited wrinkle | 
O=C1O[C@H]([C@@H](O)CO)C(O)=C1O [vitamin-C, reference compound] | 20 |  |  |  |  |  |  |  |  |  | 20
